Assay results published in ChEMBL document CHEMBL2439954, “3D-QSAR using pharmacophore-based alignment and virtual screening for discovery of novel MCF-7 cell line inhibitors” (Eur J Med Chem, 2013).

Test system: MCF7
Assay: Cytotoxicity against human MCF7 cells after 48 hrs by MTT assay
Format: functional, cell-based
Conditions: MCF7, 48 h

| Compound | IC50 [µM] |
| --- | --- |
| CCc1cccc(CC)c1N(COC)C(=O)Cn1c(CO)nc2ccccc21 | 123 |
| Nc1ccc(-c2nc3cc(N)ccc3n2CCO)cc1 | > 200 |
| CC(C)CC(C(=O)Nc1cccc(O)c1)N1C(=O)c2ccccc2C1=O (stereo not given) | 148 |
| Cc1ccc(C)c(C(=O)C2=C(O)C(=O)N(Cc3ccco3)C2c2cccnc2)c1 (stereo not given) | > 200 |
| COc1cccc(NC(=O)COc2ccc(C3C(C#N)=C(N)Oc4[nH]nc(C)c43)cc2)c1 (stereo not given) | 38.5 |
| Nc1ccc(Oc2ccc3nc(-c4ccccc4)c(-c4ccc(N)cc4)nc3c2)cc1 | 65.4 |
| Cc1ccc(/C=N\NC(=O)Cn2c(-c3nonc3N)nc3ccccc32)cc1 | 172 |
| COc1ccc(-n2c(SCC(=O)Nc3cccc(C(C)=O)c3)nnc2-c2ccccc2OC)cc1 | > 200 |
| COc1cc(C2C(C(=O)c3ccc(F)cc3)=C(O)C(=O)N2Cc2cccnc2)ccc1O (stereo not given) | 185 |
| COc1ccc(-c2cc(C(F)(F)F)n3ncc(C(=O)NC(C)c4ccccc4)c3n2)cc1OC (stereo not given) | 30.2 |
| COc1ccc(COC(=O)/C(=C(\C)NC(N)=O)C(C)c2ccccc2OCc2ccccc2)cc1 (stereo not given) | 108 |
| Cc1cc(C(=O)C2=C(O)C(=O)N(CCN3CCOCC3)C2c2ccncc2)ccc1OCC(C)C (stereo not given) | 151 |
| CCOc1cccc(C(=O)C2=C(O)C(=O)N(Cc3ccco3)C2c2cccnc2)c1 (stereo not given) | 181 |
| C[C@]12CC[C@H](O)CC1=CC[C@@H]1[C@@H]2CC[C@]2(C)C(=O)CC[C@@H]12 [PRASTERONE] | > 200 |
| CC/C(=C(\c1ccccc1)c1ccc(OCCN(C)C)cc1)c1ccccc1 [TAMOXIFEN] | 15.2 |
